Measured values reported in US20050123583A1, “Medical use of reuterin” (priority 2000, published 2005).

Key:
[1] = tested on: Escherichia coli (ATCC 25922), Pseudomonas aeruginosa (ATCC 27853), Staphylococcus aureus (ATCC 25923), and Bacillus subtillis (ATCC 6633); assay: Antimicrobial activity of reuterin, glutaraldehyde as control; type: cell-based
Excerpt: Antimicrobial activity of reuterin was studied (J Biomed Mater Res 2002;61:360-369) and disclosed in the present invention, wherein glutaraldehyde is used as a control. The microorganisms tested in the study are Escherichia coli (ATCC 25922), Pseudomonas aeruginosa (ATCC 27853), Staphylococcus aureus (ATCC 25923), and Bacillus subtillis (ATCC 6633).

[2] = tested on: 3T3 fibroblasts (BALB/3T3 C1A31-1-1); assay: Cytotoxicity, light microscopic observation of cultured cells; type: cell-based; details: 24 hours of culture
Protocol: (§1) The cytotoxicity of reuterin was also studied (J Biomed Mater Res 2002;61:360-369) and disclosed in the present invention, wherein glutaraldehyde is again used as a control. The cytotoxicity of the test reagents (glutaraldehyde vs. reuterin) was evaluated in vitro using a mouse-derived established cell line of 3T3 fibroblasts (BALB/3T3 C1A31-1-1). The assay (light microscopic observation and MTT assay) was used to measure the proportion of viable cells following a test reagent-treated culture.
In the assay, 3T3 fibroblasts were seeded in 24-well plates at 5×10^4 cells/well in 1 ml Dulbecco's modified eagle medium (DMEM, Gibco 430-2800EG, Grand Island, N.Y., USA) with 10% fetal calf serum (FCS, Hyclone Laboratories, Logan, Ut., USA). The cell culture was maintained in a humidified incubator at 37° C. with 10% CO2 in air. Cells in log phase of growth were then exposed to a new DMEM medium drugged with varying concentrations of glutaraldehyde or reuterin. After 24 hours of culture, the growth media in the wells were removed and the cells were photographed using light microscopy. Subsequently, the cells were washed with phosphate buffered saline (PBS) twice and surviving cell numbers were then determined indirectly by 3-(4,5-dimethylthiazol-yl)-2,5-diphenyltetrazolium bromide (MTT, Sigma Chemical Co., St. Louis, Mo., USA) dye reduction.

[3] = tested on: 3T3 fibroblasts (BALB/3T3 C1A31-1-1); assay: Cytotoxicity, MTT assay; type: cell-based, mouse; details: 24 hours of culture
Protocol: as §1
In the assay, 3T3 fibroblasts were seeded in 24-well plates at 5×10^4 cells/well in 1 ml Dulbecco's modified eagle medium (DMEM, Gibco 430-2800EG, Grand Island, N.Y., USA) with 10% fetal calf serum (FCS, Hyclone Laboratories, Logan, Ut., USA). […] Subsequently, the cells were washed with phosphate buffered saline (PBS) twice and surviving cell numbers were then determined indirectly by 3-(4,5-dimethylthiazol-yl)-2,5-diphenyltetrazolium bromide (MTT, Sigma Chemical Co., St. Louis, Mo., USA) dye reduction.
The MTT assay is based on the reduction of MTT, a yellow soluble dye by the mitochondrial succinate dehydrogenase to form an insoluble dark blue formazan product. […] Optical density readings were then performed using a multiwell scanning spectrophotometer (MRX Microplate Reader, Dynatech Laboratories Inc., Chantilly, Va., USA) at a wavelength of 570 nm. […]

| SMILES | values for glutaraldehyde relative to those for reuterin ([1]; growth-preventing and lethal concentrations) | state of cultured cells in photomicrographs ([2]; 0.05 ppm) | state of cultured cells in photomicrographs ([2]; 5 ppm) | MTT50 concentration (concentration reducing optical density reading to half that of the control) [3] | concentration that can prevent the growth of the tested microorganisms ([1]; all four tested microorganisms) [ppm] | concentration that resulted in the death of the tested microorganisms ([1]; all four tested microorganisms) [ppm] | sensitivity of tested microorganisms ([1]; gram-positive and gram-negative bacteria) | state of cultured cells in photomicrographs ([2]; 15 ppm) |
| --- | --- | --- | --- | --- | --- | --- | --- | --- |
| O=CCCCC=O [glutaraldehyde, reference compound] | 2˜3 times | confluent | all the cells cultured were found dead | approximately 4 ppm |  |  |  |  |
| O=CCCO [reuterin, β-hydroxypropinoaldehyde] |  |  |  | about 20 ppm | 20 to 35 | 40 to 50 | sensitive | confluent |
